Experimental data taken from ChEMBL document CHEMBL1255477, “In vitro properties of BAL30072, a novel siderophore sulfactam with activity against multiresistant gram-negative bacilli” (Antimicrob Agents Chemother, 2010).
pIC50: −log10 of the molar value. Active and inactive are the calls of the source.

Legend:
Citrobacter freundii = assay: Antimicrobial activity against Citrobacter freundii by broth dilution method; type: functional
Providencia stuartii = assay: Antimicrobial activity against Providencia stuartii by broth dilution method; type: functional
Pseudomonas aeruginosa [1] = assay: Antimicrobial activity against Pseudomonas aeruginosa BA assessed as number of passages required for MIC to rise above 4 times original MIC; type: functional
Proteus penneri = assay: Antimicrobial activity against Proteus penneri by broth dilution method; type: functional
Acinetobacter sp. = assay: Antimicrobial activity against Acinetobacter sp. by broth dilution method; type: functional
Proteus vulgaris = assay: Antimicrobial activity against Proteus vulgaris by broth dilution method; type: functional
Escherichia coli [2] = assay: Antimicrobial activity against Escherichia coli by broth dilution method; type: functional
Acinetobacter junii = assay: Antimicrobial activity against Acinetobacter junii 15218 assessed as number of passages required for MIC to rise above 4 times original MIC; type: functional
Proteus mirabilis = assay: Antimicrobial activity against Proteus mirabilis by broth dilution method; type: functional
[3] = test system: Stenotrophomonas maltophilia; assay: Antimicrobial activity against Stenotrophomonas maltophilia by broth dilution method; type: functional
Pseudomonas aeruginosa [4] = assay: Antimicrobial activity against Pseudomonas aeruginosa 527 assessed as number of passages required for MIC to rise above 4 times original MIC; type: functional
Klebsiella pneumoniae [5] = assay: Antimicrobial activity against Klebsiella pneumoniae 1338665 assessed as number of passages required for MIC to rise above 4 times original MIC; type: functional
Serratia marcescens [6] = assay: Antimicrobial activity against Serratia marcescens by broth dilution method; type: functional
Klebsiella pneumoniae [7] = assay: Antimicrobial activity against Klebsiella pneumoniae by broth dilution method; type: functional
[8] = test system: Stenotrophomonas maltophilia; assay: Antimicrobial activity against Stenotrophomonas maltophilia 1AC736 assessed as number of passages required for MIC to rise above 4 times original MIC; type: functional
Enterobacteriaceae = assay: Antimicrobial activity against Enterobacteriaceae by broth dilution method; type: functional
Providencia rettgeri [9] = assay: Antimicrobial activity against Providencia rettgeri by broth dilution method; type: functional
Klebsiella oxytoca [10] = assay: Antimicrobial activity against Klebsiella oxytoca by broth dilution method; type: functional
Klebsiella aerogenes = assay: Antimicrobial activity against Enterobacter aerogenes by broth dilution method; type: functional
Burkholderia sp. = assay: Antimicrobial activity against Burkholderia sp. by broth dilution method; type: functional
Acinetobacter baumannii [11] = assay: Antimicrobial activity against Acinetobacter baumannii HPA74510 assessed as number of passages required for MIC to rise above 4 times original MIC; type: functional
Pseudomonas aeruginosa [12] = assay: Antimicrobial activity against Pseudomonas aeruginosa by broth dilution method; type: functional
Pseudomonas aeruginosa [13] = assay: microbe, parasite or virus in culture; conditions: 18S/H
Escherichia coli [14] = assay: Antimicrobial activity against Escherichia coli A harboring beta-lactamase CTX-M 15 by broth dilution method; type: functional
Acinetobacter baumannii [15] = assay: Antimicrobial activity against Acinetobacter baumannii HPA 327009 harboring beta-lactamase OXA-25 by broth dilution method; type: functional
Providencia rettgeri [16] = assay: Antimicrobial activity against Providencia rettgeri J96 harboring beta-lactamase IMP-1 by broth dilution method; type: functional
Acinetobacter baumannii [17] = assay: Antimicrobial activity against Acinetobacter baumannii HPA I-16 harboring beta-lactamase OXA-27 by broth dilution method; type: functional
[18] = Inhibition of Beta-lactamase IMP1
Escherichia coli [19] = assay: Antimicrobial activity against Escherichia coli HB101 harboring beta-lactamase TEM-5 by broth dilution method; type: functional
Escherichia coli [20] = assay: Antimicrobial activity against Escherichia coli CF102 harboring beta-lactamase TEM-3 by broth dilution method; type: functional
Klebsiella pneumoniae [21] = assay: Antimicrobial activity against Klebsiella pneumoniae 26768WU harboring beta-lactamase SHV-5 by broth dilution method; type: functional
Pseudomonas aeruginosa [22] = assay: Antimicrobial activity against Pseudomonas aeruginosa HPA10586 harboring beta-lactamase VIM-1 by broth dilution method; type: functional
AmpC = AmpC (Escherichia coli, UniProt Q83TT7); assay: Inhibition of Escherichia coli ATCC 25922 AmpC
[23] = Inhibition of Escherichia coli Penicillin-binding protein 1B
Escherichia coli [24] = assay: Antimicrobial activity against Escherichia coli Libyien harboring beta-lactamase CMY-2 by broth dilution method; type: functional
[25] = Inhibition of Escherichia coli Penicillin-binding protein 3
Escherichia coli [26] = assay: Antimicrobial activity against Escherichia coli K802N harboring beta-lactamase TEM-3 by broth dilution method; type: functional
[27] = Inhibition of Escherichia coli Penicillin-binding protein 2
Klebsiella pneumoniae [28] = assay: Antimicrobial activity against Klebsiella pneumoniae 1357E harboring beta-lactamase TEM-10 by broth dilution method; type: functional
[29] = Inhibition of beta-lactamase KPC-2
Klebsiella oxytoca [30] = assay: Antimicrobial activity against Klebsiella oxytoca 1028E harboring beta-lactamase K1 by broth dilution method; type: functional
Escherichia coli [31] = assay: Antimicrobial activity against Escherichia coli W3110 assessed as appearance of spheroplast at 64 ug/mL after 3 hrs by phase-contrast microscopy; type: functional, organism-based
Klebsiella pneumoniae [32] = assay: Antimicrobial activity against Klebsiella pneumoniae CRE harboring beta-lactamase KPC-2 by broth dilution method; type: functional
Escherichia coli [33] = assay: Antimicrobial activity against Escherichia coli W3110 assessed as appearance of long filaments at 64 ug/mL after 3 hrs by phase-contrast microscopy; type: functional, organism-based
[34] = test system: Stenotrophomonas maltophilia; assay: Antimicrobial activity against Stenotrophomonas maltophilia B715 harboring beta-lactamase L1and L2 by broth dilution method; type: functional
Acinetobacter baumannii [35] = assay: Antimicrobial activity against Acinetobacter baumannii HPA 4737 harboring beta-lactamase OXA-26 by broth dilution method; type: functional
Escherichia coli [36] = assay: Antimicrobial activity against Escherichia coli nmcA harboring beta-lactamase NMCA by broth dilution method; type: functional
Klebsiella pneumoniae [37] = assay: Antimicrobial activity against Klebsiella pneumoniae YC harboring beta-lactamase KPC-2,TEM-1and SHV-2 by broth dilution method; type: functional
Serratia marcescens [38] = assay: Antimicrobial activity against Serratia marcescens S6 harboring beta-lactamase SME-1.AmpC by broth dilution method; type: functional
Acinetobacter baumannii [39] = assay: Antimicrobial activity against Acinetobacter baumannii HPA74510 harboring beta-lactamase IMP-4 by broth dilution method; type: functional
[40] = Inhibition of Escherichia coli Penicillin-binding protein 1A

AmpC, sequence (Q83TT7 whole entry): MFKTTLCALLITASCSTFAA

CO/N=C(\C(=O)N[C@@H]1C(=O)N2C(C(=O)[O-])=C(C[N+]3(C)CCCC3)CS[C@H]12)c1csc(N)n1
2 passages: Activity (Pseudomonas aeruginosa [1])
≤ 0.06 µg/mL: MIC50 (Providencia stuartii) | MIC50 (Providencia rettgeri [9])
0.125 µg/mL: MIC50 (Proteus penneri) | MIC50 (Proteus vulgaris) | MIC50 (Proteus mirabilis)
inactive: Activity (Klebsiella pneumoniae [5]) | Activity (Acinetobacter baumannii [11])
2 µg/mL: MIC90 (Serratia marcescens [6]) | MIC50 (Klebsiella oxytoca [10])
32 µg/mL: MIC50 (Acinetobacter sp.) | MIC90 (Pseudomonas aeruginosa [12])
8 µg/mL: MIC50 (Escherichia coli [2]) | MIC50 (Burkholderia sp.)
> 32 µg/mL: MIC90 (Providencia stuartii) | MIC90 (Acinetobacter sp.) | MIC90 (Escherichia coli [2]) | MIC90 [3] | MIC90 (Klebsiella pneumoniae [7]) | MIC90 (Providencia rettgeri [9])
16 µg/mL: MIC50 [3] | MIC90 (Klebsiella aerogenes) | MIC90 (Burkholderia sp.) | MIC50 (Pseudomonas aeruginosa [12])
4 µg/mL: MIC90 (Citrobacter freundii) | MIC50 (Klebsiella pneumoniae [7]) | MIC50 (Enterobacteriaceae) | MIC90 (Klebsiella oxytoca [10])
14 passages: Activity (Acinetobacter junii)
1 passages: Activity (Pseudomonas aeruginosa [4]) | Activity [8]
1 µg/mL: MIC50 (Citrobacter freundii) | MIC90 (Proteus penneri) | MIC90 (Proteus vulgaris) | MIC90 (Proteus mirabilis) | MIC50 (Serratia marcescens [6])

C[C@H]1[C@H](NC(=O)/C(=N\OC(C)(C)C(=O)O)c2csc(N)n2)C(=O)N1S(=O)(=O)O [AZTREONAM]
32 µg/mL: MIC (Acinetobacter baumannii [17]) | MIC (Escherichia coli [19]) | MIC (Escherichia coli [20]) | MIC [34] | MIC (Acinetobacter baumannii [35]) | MIC (Acinetobacter baumannii [39])
4 µg/mL: MIC50 (Klebsiella aerogenes)
7.22: pIC50 (AmpC)
2.96: pIC50 [18]
2 µg/mL: MIC (Providencia rettgeri [16])
7.64: pIC50 [25]
active: Activity (Escherichia coli [31]) | Activity (Escherichia coli [33])
< 2.60: pIC50 [29]
> 32 µg/mL: MIC (Pseudomonas aeruginosa [13]) | MIC (Escherichia coli [14]) | MIC (Citrobacter freundii) | MIC50 (Citrobacter freundii) | MIC90 (Citrobacter freundii) | MIC50 (Acinetobacter sp.) | MIC90 (Acinetobacter sp.) | MIC50 (Escherichia coli [2]) | MIC90 (Escherichia coli [2]) | MIC (Klebsiella pneumoniae [21]) | MIC (Escherichia coli [26]) | MIC (Klebsiella pneumoniae [28]) | MIC (Klebsiella oxytoca [30]) | MIC90 (Klebsiella oxytoca [10]) | MIC (Klebsiella pneumoniae [32]) | MIC90 (Klebsiella aerogenes) | MIC (Escherichia coli [36]) | MIC (Klebsiella pneumoniae [37])
16 µg/mL: MIC (Acinetobacter baumannii [15]) | MIC (Pseudomonas aeruginosa [22]) | MIC (Escherichia coli [24]) | MIC50 (Klebsiella oxytoca [10]) | MIC (Serratia marcescens [38])
< 4.30: pIC50 [23] | pIC50 [27] | pIC50 [40]
